According to PubChem BioAssay (NCI):
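96-well plates; 48 h exposure; 5 concentrations. Endpoints by linear interpolation between flanking doses. Not reached: highest tested concentration assigned. GI50 = concentration required for 50% inhibition of growth. The concentration for full growth arrest is given as TGI.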

Key:
Assay in all cases: NCI anticancer screen, dose series, 48 h
COLO 205 colon = tested on: COLO 205 colon
LOX IMVI melanoma = tested on: LOX IMVI melanoma
SNB-19 CNS = tested on: SNB-19 CNS
HT29 colon = tested on: HT29 colon
SK-OV-3 ovarian = tested on: SK-OV-3 ovarian
NCI-H226 lung = tested on: NCI-H226 lung
SR leukemia = tested on: SR leukemia
A549 NSCLC = tested on: A549 NSCLC
T-47D breast = tested on: T-47D breast
OVCAR-5 ovarian = tested on: OVCAR-5 ovarian
HL-60(TB) leukemia = tested on: HL-60(TB) leukemia
SF-295 CNS = tested on: SF-295 CNS
HOP-62 NSCLC = tested on: HOP-62 NSCLC
NCI-H522 lung = tested on: NCI-H522 lung
PC-3 prostate = tested on: PC-3 prostate
TK-10 renal = tested on: TK-10 renal
SF-539 CNS = tested on: SF-539 CNS
CCRF-CEM leukemia = tested on: CCRF-CEM leukemia
UACC-257 melanoma = tested on: UACC-257 melanoma
SK-MEL-2 melanoma = tested on: SK-MEL-2 melanoma
NCI-H23 lung = tested on: NCI-H23 lung
HS 578T breast = tested on: HS 578T breast
OVCAR-4 ovarian = tested on: OVCAR-4 ovarian
K-562 leukemia = tested on: K-562 leukemia
OVCAR-8 ovarian = tested on: OVCAR-8 ovarian
MOLT-4 leukemia = tested on: MOLT-4 leukemia
HOP-92 NSCLC = tested on: HOP-92 NSCLC
SNB-75 CNS = tested on: SNB-75 CNS
SF-268 CNS = tested on: SF-268 CNS
RXF 393 renal = tested on: RXF 393 renal
MDA-MB-435 = tested on: MDA-MB-435
CAKI-1 renal = tested on: CAKI-1 renal
MALME-3M melanoma = tested on: MALME-3M melanoma
SK-MEL-5 melanoma = tested on: SK-MEL-5 melanoma
SN12C renal = tested on: SN12C renal
HCC-2998 colon = tested on: HCC-2998 colon
SK-MEL-28 melanoma = tested on: SK-MEL-28 melanoma
UACC-62 melanoma = tested on: UACC-62 melanoma
ACHN renal = tested on: ACHN renal
RPMI-8226 leukemia = tested on: RPMI-8226 leukemia
EKVX NSCLC = tested on: EKVX NSCLC
IGROV1 ovarian = tested on: IGROV1 ovarian
A498 renal = tested on: A498 renal
KM12 colon = tested on: KM12 colon
MDA-MB-231 breast = tested on: MDA-MB-231 breast
UO-31 renal = tested on: UO-31 renal
DU-145 prostate = tested on: DU-145 prostate

O=C(/C=C/c1ccccc1Cl)c1nc2ccccc2n1Cc1ccc(F)cc1 gave a GI50 (COLO 205 colon) of 4.01 µM, a TGI (COLO 205 colon) of over 100 µM and a GI50 (LOX IMVI melanoma) of 1.65 µM. For the same molecule, the TGI (LOX IMVI melanoma) was 3.23 µM, the GI50 (SNB-19 CNS) was 3.99 µM and the TGI (SNB-19 CNS) was 70 µM. The GI50 (HT29 colon) was 3.64 µM, the TGI (HT29 colon) was over 100 µM and the GI50 (SK-OV-3 ovarian) was 32.5 µM. It also gave a TGI (SK-OV-3 ovarian) of over 100 µM, a GI50 (NCI-H226 lung) of 25.4 µM and a TGI (NCI-H226 lung) of over 100 µM. It also gave a GI50 (SR leukemia) of 2.87 µM, a TGI (SR leukemia) of over 100 µM and a GI50 (A549 NSCLC) of 8.06 µM. For the same molecule, the TGI (A549 NSCLC) was over 100 µM, the GI50 (T-47D breast) was 3.44 µM and the TGI (T-47D breast) was over 100 µM. The GI50 (OVCAR-5 ovarian) was 3.76 µM, the TGI (OVCAR-5 ovarian) was 73.1 µM and the GI50 (HL-60(TB) leukemia) was 2.51 µM. It also gave a TGI (HL-60(TB) leukemia) of over 100 µM, a GI50 (SF-295 CNS) of 5.01 µM and a TGI (SF-295 CNS) of 25.1 µM. It also gave a GI50 (HOP-62 NSCLC) of 5.03 µM, a TGI (HOP-62 NSCLC) of 41.9 µM and a GI50 (NCI-H522 lung) of 4.49 µM. The TGI (NCI-H522 lung) was over 100 µM, the GI50 (PC-3 prostate) was 4.45 µM and the TGI (PC-3 prostate) was over 100 µM. It also gave a GI50 (TK-10 renal) of 6.22 µM, a TGI (TK-10 renal) of over 100 µM and a GI50 (SF-539 CNS) of 2.33 µM. The TGI (SF-539 CNS) was 5.67 µM, the GI50 (CCRF-CEM leukemia) was 2.45 µM and the TGI (CCRF-CEM leukemia) was over 100 µM. It also gave a GI50 (UACC-257 melanoma) of 8.88 µM, a TGI (UACC-257 melanoma) of over 100 µM and a GI50 (SK-MEL-2 melanoma) of 13.4 µM. It also gave a TGI (SK-MEL-2 melanoma) of over 100 µM, a GI50 (NCI-H23 lung) of 4.25 µM and a TGI (NCI-H23 lung) of over 100 µM. For the same molecule, the GI50 (HS 578T breast) was 4.51 µM, the TGI (HS 578T breast) was 58.6 µM and the GI50 (OVCAR-4 ovarian) was 23 µM. For the same molecule, the TGI (OVCAR-4 ovarian) was over 100 µM, the GI50 (K-562 leukemia) was 3.3 µM and the TGI (K-562 leukemia) was over 100 µM. The GI50 (OVCAR-8 ovarian) was 3.25 µM, the TGI (OVCAR-8 ovarian) was over 100 µM and the GI50 (MOLT-4 leukemia) was 3.04 µM. It also gave a TGI (MOLT-4 leukemia) of over 100 µM, a GI50 (HOP-92 NSCLC) of 16.4 µM and a TGI (HOP-92 NSCLC) of 62.8 µM. The GI50 (SNB-75 CNS) was 3.3 µM, the TGI (SNB-75 CNS) was over 100 µM and the GI50 (SF-268 CNS) was 8.56 µM. For the same molecule, the TGI (SF-268 CNS) was over 100 µM, the GI50 (RXF 393 renal) was 2.06 µM and the TGI (RXF 393 renal) was 5.35 µM. The GI50 (MDA-MB-435) was 2.37 µM, the TGI (MDA-MB-435) was 5.92 µM and the GI50 (CAKI-1 renal) was 3.47 µM. For the same molecule, the TGI (CAKI-1 renal) was over 100 µM, the GI50 (MALME-3M melanoma) was 8.22 µM and the TGI (MALME-3M melanoma) was 70.2 µM. It also gave a GI50 (SK-MEL-5 melanoma) of 5.23 µM, a TGI (SK-MEL-5 melanoma) of over 100 µM and a GI50 (SN12C renal) of 20.1 µM. It also gave a TGI (SN12C renal) of over 100 µM, a GI50 (HCC-2998 colon) of 3.16 µM and a TGI (HCC-2998 colon) of 55.8 µM. It also gave a GI50 (SK-MEL-28 melanoma) of 2.75 µM, a TGI (SK-MEL-28 melanoma) of 7.72 µM and a GI50 (UACC-62 melanoma) of 3.42 µM. It also gave a TGI (UACC-62 melanoma) of 17.9 µM, a GI50 (ACHN renal) of 5.23 µM and a TGI (ACHN renal) of over 100 µM. For the same molecule, the GI50 (RPMI-8226 leukemia) was 2.97 µM, the TGI (RPMI-8226 leukemia) was over 100 µM and the GI50 (EKVX NSCLC) was 6.44 µM. The TGI (EKVX NSCLC) was over 100 µM, the GI50 (IGROV1 ovarian) was 3.33 µM and the TGI (IGROV1 ovarian) was over 100 µM. It also gave a GI50 (A498 renal) of 61.8 µM, a TGI (A498 renal) of over 100 µM and a GI50 (KM12 colon) of 3.34 µM. For the same molecule, the TGI (KM12 colon) was over 100 µM, the GI50 (MDA-MB-231 breast) was 2.59 µM and the TGI (MDA-MB-231 breast) was 6.68 µM. For the same molecule, the GI50 (UO-31 renal) was 2.58 µM, the TGI (UO-31 renal) was 11.2 µM and the GI50 (DU-145 prostate) was 4.61 µM. The TGI (DU-145 prostate) was over 100 µM.
